What was measured:
GluR21 receptors = GluR21 receptors (Rattus norvegicus, UniProt P19491); assay: Whole-cell recording, potentiation of steady-state glutamate-induced currents; type: cell-based; settings: whole-cell mode (−60 mV), 1 mM glutamate
Procedure: FIG. 18. (A) Potentiation of steady-state glutamate-induced currents for GluR2; receptors and (B) % current potentiation bar graph.
Potentiation of steady-state glutamate-induced currents for GluR21 receptors by N,N′-(2S,2′S)-2,2′-(biphenyl-4,4′-diyl)bis(2-fluoropropane-2,1-diyl)dipropane-2-sulfonamide).
The recordings are in whole-cell mode (−60 mV) and show inward currents elicited by 1 mM glutamate in the presence of various concentrations of N,N′-(2S,2′S)-2,2′-(biphenyl-4,4′-diyl)bis(2-fluoropropane-2,1-diyl)dipropane-2-sulfonamide).

GluR2 receptor = target: T1, GluR2 receptor (Rattus norvegicus, UniProt P19491); assay: Electrophysiologic studies in GluR2 expressing oocytes (I/Imax versus concentration); type: cell-based; settings: cells expressing the GluR2 receptor, FIG. 16A-D
T1 construct: expressed in transfected cells; host or cells: Xenopus laevis oocytes
T1 sequence (P19491 22-883): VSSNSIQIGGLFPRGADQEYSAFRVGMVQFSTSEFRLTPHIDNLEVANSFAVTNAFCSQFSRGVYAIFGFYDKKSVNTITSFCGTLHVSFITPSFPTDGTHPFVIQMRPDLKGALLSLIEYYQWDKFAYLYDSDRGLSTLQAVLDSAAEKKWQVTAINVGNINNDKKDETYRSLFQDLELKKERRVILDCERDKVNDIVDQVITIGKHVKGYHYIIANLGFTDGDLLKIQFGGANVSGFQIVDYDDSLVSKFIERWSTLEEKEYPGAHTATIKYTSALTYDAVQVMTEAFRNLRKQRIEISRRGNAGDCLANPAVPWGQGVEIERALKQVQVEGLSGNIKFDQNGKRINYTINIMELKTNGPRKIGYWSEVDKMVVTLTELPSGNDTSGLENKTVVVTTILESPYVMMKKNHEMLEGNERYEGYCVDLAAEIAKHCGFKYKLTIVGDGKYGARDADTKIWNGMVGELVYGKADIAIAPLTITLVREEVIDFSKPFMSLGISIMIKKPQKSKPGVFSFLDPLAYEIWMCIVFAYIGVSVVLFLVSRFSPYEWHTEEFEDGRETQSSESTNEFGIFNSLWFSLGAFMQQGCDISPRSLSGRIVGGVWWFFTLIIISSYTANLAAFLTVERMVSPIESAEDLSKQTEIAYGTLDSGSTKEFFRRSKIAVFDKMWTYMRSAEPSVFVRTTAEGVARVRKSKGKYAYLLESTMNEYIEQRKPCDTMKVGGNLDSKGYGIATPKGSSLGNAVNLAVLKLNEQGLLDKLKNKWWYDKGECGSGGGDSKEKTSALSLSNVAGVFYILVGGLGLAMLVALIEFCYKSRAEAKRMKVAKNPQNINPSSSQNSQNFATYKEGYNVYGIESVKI
Procedure: FIG. 16A-E. Electrophysiologic studies comparing N,N′-(2R,2′R)-2,2′-(biphenyl-4,4′-diyl)bis(propane-2,1-diyl)dipropane-2-sulfonamide) with LY451646. A. Microamperes of current over various periods of time in a GluR2 expressing oocyte (Xenopus laevis oocyte with microinjected rat GluR2 receptor-encoding mRNA), exposed to various concentrations (0.001 μM, 0.01 μM, 0.1 μM and 1 μM) of N,N′-(2R,2′R)-2,2′-(biphenyl-4,4′-diyl)bis(propane-2,1-diyl)dipropane-2-sulfonamide). B. Microamperes of current over various periods of time in a GluR2 expressing oocyte exposed to various concentrations (0.001 μM, 0.01 μM, 0.1 μM, 1 μM and 10 μM) of LY451646. C. In an oocyte expressing GluR2, ratio of current/maximal current (I/Imax) versus concentration of N,N′-(2R,2′R)-2,2′-(biphenyl-4,4′-diyl)bis(propane-2,1-diyl)dipropane-2-sulfonamide). D. In an oocyte expressing GluR2, ratio of current/maximal current (I/Imax) versus concentration of LY451646. E. N,N′-(2R,2′R)-2,2′-(biphenyl-4,4′-diyl)bis(propane-2,1-diyl)dipropane-2-sulfonamide).

GluR2 S1S2 = GluR2 S1S2 (Rattus norvegicus, UniProt P19491, DEL528-650/N775S/S652T/V651G); assay: Dimerization of GluR2 S1S2; settings: FIG. 4A-B
Chain of GluR2 S1S2 (P19491 with tags, fused parts or gaps DEL528-650/V651G/S652T/N775S): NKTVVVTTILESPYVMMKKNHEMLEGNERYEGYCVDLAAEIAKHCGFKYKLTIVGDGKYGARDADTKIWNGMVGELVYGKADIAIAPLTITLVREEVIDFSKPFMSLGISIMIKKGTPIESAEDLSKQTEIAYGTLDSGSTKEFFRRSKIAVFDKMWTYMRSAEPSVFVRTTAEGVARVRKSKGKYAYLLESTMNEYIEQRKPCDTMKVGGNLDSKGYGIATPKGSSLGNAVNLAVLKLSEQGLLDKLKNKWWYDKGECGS
Text: (A) GluR2 alone; (B) GluR2S1S2 in the presence of LY451646.
(§1) LY451646 is an […] of GluR2. […] The top tracing represents application of glutamate alone, the bottom tracing glutamate plus LY451646. […] In the absence of LY451646, the amount of dimerized GluR2 barely rises above baseline (FIG. 4A). With the addition of LY451646, dimers overtake monomers (FIG. 4B).

[1] = system: hippocampal cell proliferation; settings: rats, Bai et al., 2003; cited from earlier work
despair = settings: Bai et al., 2001; cited from earlier work
Delta ATD GluR2 = assay: Two electrode voltage clamp (TEVC) recording of glutamate currents in oocytes; type: cell-based; settings: glutamate plus compound versus glutamate alone, FIG. 3
Text: FIG. 3. LY451646 potentiates glutamate currents from Delta ATD GluR2 as measured by TEVC in oocytes. The top tracing represents application of glutamate alone, the bottom tracing glutamate plus LY451646.
as §1

AMPA = settings: rat, glucose utilization and c-fos expression, Fowler et al., 2004; cited from earlier work
[2] = target: GluR2 Flip splice variant (Homo sapiens, UniProt P42262); settings: by decreasing desensitization, Quirk and Nisenbaum, 2003; cited from earlier work
Chain of GluR2 Flip splice variant (P42262 22-883 isoform P42262-2 limits assumed): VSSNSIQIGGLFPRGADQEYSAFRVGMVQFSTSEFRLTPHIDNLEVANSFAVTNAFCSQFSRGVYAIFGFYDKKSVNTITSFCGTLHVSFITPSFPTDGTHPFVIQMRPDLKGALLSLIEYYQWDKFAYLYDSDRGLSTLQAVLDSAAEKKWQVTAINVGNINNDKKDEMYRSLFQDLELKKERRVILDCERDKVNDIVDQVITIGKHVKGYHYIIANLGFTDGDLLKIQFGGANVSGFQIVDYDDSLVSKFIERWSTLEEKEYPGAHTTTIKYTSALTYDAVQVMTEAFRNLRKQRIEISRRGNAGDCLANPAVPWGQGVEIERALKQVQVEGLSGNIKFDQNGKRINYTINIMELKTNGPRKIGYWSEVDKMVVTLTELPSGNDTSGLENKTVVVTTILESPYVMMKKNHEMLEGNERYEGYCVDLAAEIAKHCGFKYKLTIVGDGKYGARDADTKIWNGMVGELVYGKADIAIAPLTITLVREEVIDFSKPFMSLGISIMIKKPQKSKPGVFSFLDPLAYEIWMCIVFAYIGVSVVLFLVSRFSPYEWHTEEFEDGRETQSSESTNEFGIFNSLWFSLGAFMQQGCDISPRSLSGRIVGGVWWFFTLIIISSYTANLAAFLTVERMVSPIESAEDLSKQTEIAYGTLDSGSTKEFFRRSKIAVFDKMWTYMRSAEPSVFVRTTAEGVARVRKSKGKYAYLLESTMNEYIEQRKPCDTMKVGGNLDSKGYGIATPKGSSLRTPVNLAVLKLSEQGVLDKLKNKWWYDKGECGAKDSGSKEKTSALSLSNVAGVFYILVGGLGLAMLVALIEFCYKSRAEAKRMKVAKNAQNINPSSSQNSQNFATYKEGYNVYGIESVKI

[3] = system: rat model of Parkinson's disease; settings: O'Neil et al., 2004; cited from earlier work
locomotor activity = assay: Amphetamine-induced locomotor activity in activity chambers; type: in vivo; settings: mice, 1 mg/kg and 3 mg/kg i.p.
Procedure: FIG. 17. Effect of N,N′-(2R,2′R)-2,2′-(biphenyl-4,4′-diyl)bis(propane-2,1-diyl)dipropane-2-sulfonamide) on locomotor activity in the context of various doses of amphetamine.
Mice (male, 8 weeks of age; 129S6/SvEv from Taconic) were housed in groups of five for one week. Animals were injected (i.p.) with either vehicle (diluent:saline at a ratio of 3:50 v/v), or one of two doses of GR341 (1 mg/kg and 3 mg/kg). After 15 minutes, animals were injected (i.p.) either with saline or Amphetamine at 3 mg/kg. Mice were held individually without food or water for an additional 15 minutes and then placed in Plexiglas activity chambers (model ENV-520; Med Associates, St. Albans, Vt.) (43.2 cm long×43.2 cm wide×30.5 cm high) to assess locomotor activity. Mice were placed into the center of the open field, and activity was recorded for 30 minutes with subtotals for 5-minute increments. Testing was performed in darkness to minimize anxiety.

Chain of GluR21 receptors (P19491 22-883 isoform P19491-2 limits assumed): as the sequence (P42262 22-883 isoform P42262-2 limits assumed) above, with M170T, T270A, R743G, A831P counted along it

Q: Which saturating concentration (GluR21 receptors) does the source give for `CC(C)S(=O)(=O)NC[C@@](C)(F)c1ccc(-c2ccc([C@](C)(F)CNS(=O)(=O)C(C)C)cc2)cc1` [N,N′-(2S,2′S)-2,2′-(biphenyl-4,4′-diyl)bis(2-fluoropropane-2,1-diyl)dipropane-2-sulfonamide)] here?
A: The saturating concentration was 200 nM.

Q: And the “effect on glutamate receptor currents” value (GluR21 receptors; FIG. 18)?
A: Its value is “potentiates glutamate receptor currents”.

Q: What about the EC50 (GluR21 receptors; FIG. 18B, approximately half saturating concentration) of the same compound?
A: The EC50 was roughly 50 nM.

Q: Which results are given for `CC(C)S(=O)(=O)NC[C@H](C)c1ccc(-c2ccc(C#N)cc2)cc1` [LY451646]?
A: EC50 (GluR2 receptor): 130 ± 16 nM; dimerization of GluR2 S1S2 (GluR2 S1S2): promotes dimerization; hippocampal cell proliferation [1]: increase hippocampal cell proliferation; "despair" in the FST and TST (despair): reduce “despair”; effect on glutamate currents (Delta ATD GluR2): potentiate glutamate currents

Q: For `CC(CNS(=O)(=O)C(C)C)c1ccc(-c2ccc(C#N)cc2)cc1` (centres unmarked) [LY404187, R,S—N-2-(4-(4-Cyanophenyl)phenyl)propyl 2-propanesulfonamide], which “glutamate dependent AMPA stimulation of the brain” value (AMPA) is on record?
A: Its value is “increases glutamate dependent AMPA stimulation”.

Q: What about the “receptor's response to glutamate” value [2] of the same compound?
A: The value was “potentiate the receptor's response to glutamate”.

Q: What about the neurotrophic effect [3] of the same compound?
A: Its neurotrophic effect is “exhibit a neurotrophic effect”.

Q: What does the source list for `CC(C)S(=O)(=O)NC[C@H](C)c1ccc(-c2ccc([C@@H](C)CNS(=O)(=O)C(C)C)cc2)cc1` [GR341]?
A: EC50 (GluR2 receptor): 12.7 ± 0.6 nM; effect on amphetamine-induced locomotor activity (locomotor activity; amphetamine 3 mg/kg i.p., 30 minutes, FIG. 17): inhibited amphetamine-induced locomotor activity; effect of the compound alone on locomotor activity (locomotor activity; saline instead of amphetamine): no significant effect
